Tests used:
Assay in all cases: relative viability (nuclei count vs DMSO), 5 days (fraction); higher = more cells survive
GSK-J4 = compound: CCOC(=O)CCNc1cc(N2CCc3ccccc3CC2)nc(-c2ccccn2)n1 [GSK-J4]
Procedure, shortened: (§1)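 Hoechst staining, done together with fixation and permeabilisation, marked nuclei for 4× imaging and MetaXpress counting. This followed 5 days without medium change after lung cancer cell lines, kept overnight at 37 °C in 1536-well plates, were pinned with five library-drug doses (not always all listed) spaced by √10 on vehicle-anchored plates. Viability is the ratio of treated-well to vehicle-well nuclei, expressed as a median across plates. Plates passed only at control CV below 25% with at least one doubling.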

AZ3146 = compound: CN1CCC(CC1)OC2=CC(=C(C=C2)NC3=NC=C4C(=N3)N(C(=O)N4C)C5CCCC5)OC [AZ3146]
Procedure, shortened: as §1

GSK-J4 + Decitabine = compound: CCOC(=O)CCNc1cc(N2CCc3ccccc3CC2)nc(-c2ccccn2)n1 [GSK-J4] + Nc1ncn([C@H]2C[C@H](O)[C@@H](CO)O2)c(=O)n1 [Decitabine] (partner 2 µM)
Procedure, shortened: (§2)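 Each reported value is a median over duplicate plates. It expresses relative viability: treated-well nuclei count divided by vehicle-well nuclei count. Lung cancer cell lines in 1536-well plates were dosed by pin tool a day after seeding, alone with one drug or with a fixed anchor-drug dose plus five library-drug doses (not always all listed) in √10 steps, and nuclei were counted after 5 days.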

AZ3146 + Linsitinib = compound: CN1CCC(CC1)OC2=CC(=C(C=C2)NC3=NC=C4C(=N3)N(C(=O)N4C)C5CCCC5)OC [AZ3146] + C[C@]1(O)C[C@@H](c2nc(-c3ccc4ccc(-c5ccccc5)nc4c3)c3c(N)nccn32)C1 [Linsitinib] (partner 1 µM)
Procedure, shortened: as §2

For UMC-11, the relative viability (GSK-J4; 0.5 µM) was 0.96, the relative viability (GSK-J4; 1.581 µM) was 0.735 and the relative viability (GSK-J4; 5 µM) was 0.741. For the same cell line, the relative viability (GSK-J4; 15.81 µM) was 1.01, the relative viability (GSK-J4; 50 µM) was 0.551 and the relative viability (AZ3146; 0.08 µM) was 0.863. It also gave a relative viability (AZ3146; 0.253 µM) of 0.985, a relative viability (AZ3146; 0.8 µM) of 0.971 and a relative viability (AZ3146; 2.53 µM) of 0.898. For the same cell line, the relative viability (AZ3146; 8 µM) was 0.624, the relative viability (GSK-J4 + Decitabine; first compound 0.5 µM) was 0.93 and the relative viability (GSK-J4 + Decitabine; first compound 1.581 µM) was 0.642. It also gave a relative viability (GSK-J4 + Decitabine; first compound 15.81 µM) of 0.582, a relative viability (GSK-J4 + Decitabine; first compound 50 µM) of 0.343 and a relative viability (AZ3146 + Linsitinib; first compound 0.08 µM) of 0.989. For the same cell line, the relative viability (AZ3146 + Linsitinib; first compound 0.253 µM) was 1.05, the relative viability (AZ3146 + Linsitinib; first compound 0.8 µM) was 0.992 and the relative viability (AZ3146 + Linsitinib; first compound 2.53 µM) was 0.922. It also gave a relative viability (AZ3146 + Linsitinib; first compound 8 µM) of 0.577.
